Marks after values point to notes of the source that are not given here.
Legend:
[1] = system: tobacco plants (leaf tissue discs); test: Peroxide response, ferric-xylenol orange assay on tobacco leaf discs; assay type: cell-based; details: 0.5 ug/ml peptide, one hour, absorbance at 595 nm vs blank
Procedure: (§1) The ferric-xylenol orange complex assay for hydrogen peroxide (Gay et al., Analytical Biochemistry 273:149-55 (1999), which is hereby incorporated by reference in its entirety) was used to determine peroxide production by plant leaf tissue. Briefly, reagent A was prepared by mixing 10 mg of ferrous ammonium sulfate with 133 uL of sulfuric acid in a total volume of 1 mL with water. Reagent B was prepared by mixing 2 g of sorbitol with 9.34 mg of xylenol orange in 80 ml of water. 1M hydrochloric acid was slowly added until the solution turned yellow. The solution was then diluted with water to a total volume of 100 mL, and stored in a dark bottle at 4° C.
(§2) Leaves from either tobacco plants (plants grown to 6 true leaves) or soy plants (plants grown to 6 true leaves) were used for the assay. The leaf was first removed from the plant and placed on a paper towel. 0.5 cm leaf tissue circles were then removed from the leaf using a leather punch tool. These discs were then placed into the wells of a 96-well plate. […] of water was added to each disc. The plate was covered with parafilm and rested for 12 hours in the dark. The excess water was then removed and the wells washed with an additional 250 uL of water. The washes were then removed from the wells and replaced with 105 uL of a 0.5 ug/ml solution of peptide in water or water blank, generally in quadruplicate. Where peptide solubility was a problem, pH buffer was added to both the blank and peptide samples. Leaf discs were incubated with the peptides for one hour under fluorescent lighting. 50 ul of the solution from each leaf sample was removed to a new well for chemical analysis.
(§3) Just prior to analysis, reagents A and B were freshly mixed in a 1:100 ratio to produce the assay reagent. 200 ul of this mixture was added to each well containing 50 ul of leaf-treated solution. The plate was incubated in the dark for 20 minutes and the absorbance at 595 nm was detected. Results were analyzed using a two-tailed Student's T-test. The results were divided into several response classes. XR++ indicated a positive response with absorbance >0.05 units above the negative control and a Student's T-test p<0.05. XR+ indicated an absorbance <0.05 units above the blank and a Student's T-test p<0.05. XR weak indicated a response >0.02 units above the negative control with a p-value that was not significant. XR− indicated an absorbance within 0.02 units of the negative control. It should be noted that there can be significant biological variability in the peroxide response due to plant age, location of the disc within the leaf, and other factors. As a result, p-values from the T-test are a guide and not an absolute inclusion criterion.

corn plants = test: Growth tests after foliar spray, corn; assay type: in vivo
Procedure: (§4) Soy seeds (or corn seeds, as indicated) were planted in flats with 2 seeds per cell within the flat at a greenhouse facility. The seeds were allowed to germinate and the smaller plant is culled, leaving one plant per cell. Once the first true leaves are fully expanded and the second leaves are beginning to expand, the plants were initially measured for height. This was performed by stretching the highest leaf upward and measuring the distance to the soil. Peptides were dissolved in water at the indicated concentrations (Table 21 below). The plants were then treated with a foliar spray using widely available spray bottles until liquid was dripping from the leaves. Six flats of 14 plants each were treated per condition (peptide or control). Designated untreated control plants were sprayed with water. The plants were allowed to grow for 14 days. The height of the plants was again measured and compared to the original height to quantify growth. Finally, the plants were harvested by removing the shoots (all above-ground material). For some experiments, this was weighed upon harvesting to determine the fresh mass (including water weight). The shoots were then dried at 70° C. for 72 hours, and again weighed to determine dry biomass. Although this method uses a similar measure (growth) as in Example 3 above, the treatment method is different (seed soak vs. foliar spray). As a result, the experimental outcomes may diverge.

[2] = system: tobacco mosaic virus (TMV); test: Induction of resistance to tobacco mosaic virus in tobacco; assay type: in vivo; details: for Effectiveness Covered (%) (decline in TMV lesions vs UTC, systemic response) / Effectiveness Uncovered (%) (decline in TMV lesions vs UTC, local response): TMV 3 days post-treatment, scored 3 days after inoculation
soybean seeds = test: Root & shoot growth analysis after seed soak, soy; assay type: in vivo; details: for root growth (text summary of Table 20) / shoot growth (Table 20): seed soak; for shoot growth (Table 20): p14a soy at 0.2 μg/ml; for Root (root growth index, percentage increase over untreated control) / Shoot (shoot length, percentage increase over untreated control): soy, 12-14 days
Procedure: (§5) Peptides were tested for biological effects on the allocation of growth resources to the shoot (above ground) and root (below ground). Peptides were dissolved at 0.2, 2, or 5 μg/ml in a total volume of 100 ml deionized water. Corn or soybean seeds were then soaked for one hour in the peptide solution. Untreated control (UTC) plants were soaked in deionized water. Clear plastic 300 ml beverage cups (Solo®, Dart Container Corporation) were prepared for planting by marking the bottom with a cross, dividing the bottom into four equal quadrants. The cups were then filled with Sunshine Mix #1 soil (SunGro Horticulture) sieved to ¼″. 100 ml of water was added to the soil. Treated seeds were then planted by pressing the seed lightly into the top of the soil. The seeds were then covered with an additional 50 ml of loose soil. Seeds were allowed to germinate and grow for 12-14 days.
The length of the shoot was measured as the distance from the soil to the lightly stretched tip of the highest leaf for each plant. […] Stunting was defined as lacking a fully expanded true leaf at time of data collection or having an expanded true leaf judged by eye to be <½ the average leaf area of the treatment group. Generally, 30 seeds were planted per treatment group and 15-25 plants were used for data collection.
(§6) Root growth was estimated by counting the number of times that a primary root crosses the quadrant marks on the bottom of the cup. These were often observed along the bottom circumference of the cup, although some were visible along the side of the container and were counted as if crossing a vertical extension of the quadrant line. This number was divided by 4 to produce a root growth index.
Each number indicates the percentage increase over the untreated control values.

Soy plants = test: Growth tests after foliar spray, soy; assay type: in vivo; details: for growth, dry biomass and fresh mass (text summary of Table 21): foliar spray; for Dry biomass increase (%) / Fresh mass increase (%) / Growth increase (%): soy, 14 days
Procedure: as §4

[3] = system: soy plants (leaf tissue discs); test: Peroxide response, ferric-xylenol orange assay on soy leaf discs; assay type: cell-based; details: 0.5 ug/ml peptide, one hour, absorbance at 595 nm vs blank
Procedure: as §1, §2, §3

Corn seeds = test: Root & shoot growth analysis after seed soak, corn; assay type: in vivo; details: seed soak 0.2 μg/ml, 12-14 days
Procedure: as §5
The length of the shoot was measured as the distance from the soil to the lightly stretched tip of the highest leaf for each plant. […]
as §6, with “This number was divided by 4 to produce a root growth index.” left out

[4] = foliar spray 2.0 ug/ml, 14 days

SQGISEKQLDQLFSQLIQALLQP (P4-14S-13F)
Peroxide Response, Tobacco [1]: Weak+

NQGISEKQLDQLLTQLI (P1-29)
growth benefit in corn (corn plants; foliar spray): modest growth benefit
Dry biomass increase (%) (corn plants; [4]): 5.7%
Fresh mass increase (%) (corn plants; [4]): 5.1%
Growth increase (%) (corn plants; [4]): 7.8%
Effectiveness Covered (%) (decline in TMV lesions vs UTC, systemic response) ([2]; spray 10 ug/ml): 18%
Effectiveness Uncovered (%) (decline in TMV lesions vs UTC, local response) ([2]; spray 10 ug/ml): 44%

ANNQDPMQALMQLLEDLV (P14a)
root growth (text summary of Table 20) (soybean seeds): Increased root growth
shoot growth (Table 20) (soybean seeds): increased shoot growth
Root (root growth index, percentage increase over untreated control) (soybean seeds; seed soak 0.2 μg/ml): −2.7%
Shoot (shoot length, percentage increase over untreated control) (soybean seeds; seed soak 0.2 μg/ml): 8.7%*
Root (root growth index, percentage increase over untreated control) (soybean seeds; seed soak 5.0 μg/ml): 10.3%*
Shoot (shoot length, percentage increase over untreated control) (soybean seeds; seed soak 5.0 μg/ml): −3.5%
growth, dry biomass and fresh mass (text summary of Table 21) (Soy plants): increases for all 3 measures
growth, dry biomass and fresh mass (text summary of Table 21) (Soy plants; listed as p14a): increases in growth and dry biomass
Dry biomass increase (%) (Soy plants; foliar spray 0.2 ug/ml): 12.6%
Fresh mass increase (%) (Soy plants; foliar spray 0.2 ug/ml): 46.8%
Growth increase (%) (Soy plants; foliar spray 0.2 ug/ml): 14.7%
Dry biomass increase (%) (Soy plants; foliar spray 2.0 ug/ml): 11.0%
Fresh mass increase (%) (Soy plants; foliar spray 2.0 ug/ml): 57.9%
Growth increase (%) (Soy plants; foliar spray 2.0 ug/ml): 3.4%
Dry biomass increase (%) (Soy plants; foliar spray 5.0 ug/ml): 10.6%
Fresh mass increase (%) (Soy plants; foliar spray 5.0 ug/ml): 83.3%
Growth increase (%) (Soy plants; foliar spray 5.0 ug/ml): 8.9%

QAGPQSANKTGNVDDANNQDPEQALEQLLEDLV (P14-22E,26E)
Peroxide Response, Tobacco [1]: Weak+
Effectiveness Covered (%) (decline in TMV lesions vs UTC, systemic response) ([2]; spray 20 ug/ml): 62%
Effectiveness Uncovered (%) (decline in TMV lesions vs UTC, local response) ([2]; spray 20 ug/ml): 74* %

QAGPQSANKTGNVDDANNQDPAQALEQLLEDLV (P14-22A,26E)
Peroxide Response, Soy [3]: Weak+
Effectiveness Covered (%) (decline in TMV lesions vs UTC, systemic response) ([2]; spray 20 ug/ml): 85* %
Effectiveness Uncovered (%) (decline in TMV lesions vs UTC, local response) ([2]; spray 20 ug/ml): 91* %

SQGISEKQDDQLLSQLIQALLQP (P4-14S-9D)
Peroxide Response, Soy [3]: Weak+
Effectiveness Covered (%) (decline in TMV lesions vs UTC, systemic response) ([2]; spray 10 ug/ml): 52%
Effectiveness Uncovered (%) (decline in TMV lesions vs UTC, local response) ([2]; spray 10 ug/ml): 89%

QAGPQSANKTGNVDDANNQDPLQALLQAAEDLV (P14-22L,28-29A)
Peroxide Response, Soy [3]: Weak+
Effectiveness Covered (%) (decline in TMV lesions vs UTC, systemic response) ([2]; spray 10 ug/ml): 84* %
Effectiveness Uncovered (%) (decline in TMV lesions vs UTC, local response) ([2]; spray 10 ug/ml): 83* %

QAGPQSANKTGNVDDANNQDPLQALLQLLEDLV (P14-22L,26L)
Peroxide Response, Soy [3]: Weak+
Effectiveness Covered (%) (decline in TMV lesions vs UTC, systemic response) ([2]; spray 20 ug/ml): 67* %
Effectiveness Uncovered (%) (decline in TMV lesions vs UTC, local response) ([2]; spray 20 ug/ml): 65* %

SQGISEKQSDQLLSQLIQALLQP (P4-14S-9S)
Peroxide Response, Tobacco [1]: Weak+

SQGISEKQADQLLSQLIQALLQP (P4-14S-9A)
Root (root growth index, percentage increase over untreated control) (Corn seeds): 4.8%
Shoot (shoot length, percentage increase over untreated control) (Corn seeds): 3.9%*
shoot growth (Table 20) (soybean seeds): increased shoot growth
Root (root growth index, percentage increase over untreated control) (soybean seeds; seed soak 2.0 μg/ml): 4.3%
Shoot (shoot length, percentage increase over untreated control) (soybean seeds; seed soak 2.0 μg/ml): 5.0%
Root (root growth index, percentage increase over untreated control) (soybean seeds; seed soak 5.0 μg/ml): 2.5%
Shoot (shoot length, percentage increase over untreated control) (soybean seeds; seed soak 5.0 μg/ml): 6.5%*
growth, dry biomass and fresh mass (text summary of Table 21) (Soy plants): increases in growth and dry biomass
Dry biomass increase (%) (Soy plants; foliar spray 2.0 ug/ml): 10.8%
Growth increase (%) (Soy plants; foliar spray 2.0 ug/ml): 11.9%
TMV response / effectiveness against TMV infection (summary of Table 22) ([2]; foliar spray): produced the best results
Effectiveness Covered (%) (decline in TMV lesions vs UTC, systemic response) ([2]; spray 5.0 ug/ml): 86* %
Effectiveness Uncovered (%) (decline in TMV lesions vs UTC, local response) ([2]; spray 5.0 ug/ml): 84* %

QAGPQSANKTGNVDDANNQDPMQALMQLLEDLV (P14)
Peroxide Response, Tobacco [1]: Weak+
root growth (text summary of Table 20) (soybean seeds): Increased root growth
Root (root growth index, percentage increase over untreated control) (soybean seeds; seed soak 5.0 μg/ml): 24.9%*
Shoot (shoot length, percentage increase over untreated control) (soybean seeds; seed soak 5.0 μg/ml): 4.4%
growth, dry biomass and fresh mass (text summary of Table 21) (Soy plants): increases in growth and dry biomass
Dry biomass increase (%) (Soy plants; foliar spray 2.0 ug/ml): 1.6%
Growth increase (%) (Soy plants; foliar spray 2.0 ug/ml): 25.8%
Dry biomass increase (%) (Soy plants; foliar spray 5.0 ug/ml): 3%
Growth increase (%) (Soy plants; foliar spray 5.0 ug/ml): 31.4%

SQGISEKQLDQLDSQLIQALLQP (P4-14S-13D)
Peroxide Response, Tobacco [1]: Weak+

SQGISEKQLDQLQSQLIQALLQP (P4-14S-13Q)
Peroxide Response, Tobacco [1]: Weak+
Effectiveness Covered (%) (decline in TMV lesions vs UTC, systemic response) ([2]; spray 10 ug/ml): 61* %
Effectiveness Uncovered (%) (decline in TMV lesions vs UTC, local response) ([2]; spray 10 ug/ml): 40%

QAGPQSANKTGNVDDANNQDPLQALEQLLEDLV (P14-22L,26E)
Peroxide Response, Tobacco [1]: Weak+
Effectiveness Covered (%) (decline in TMV lesions vs UTC, systemic response) ([2]; spray 20 ug/ml): 91* %
Effectiveness Uncovered (%) (decline in TMV lesions vs UTC, local response) ([2]; spray 20 ug/ml): 70* %

SEEELQQLLKLFSEIL (P3-5)
Peroxide Response, Tobacco [1]: Weak +
Effectiveness Covered (%) (decline in TMV lesions vs UTC, systemic response) ([2]; spray 10 ug/ml): 94* %
Effectiveness Uncovered (%) (decline in TMV lesions vs UTC, local response) ([2]; spray 10 ug/ml): 66%
